Experimental findings from patent US20240300908A1, “CHIRAL 3-SULFINYL BENZOIC ACIDS” (BAYER AKTIENGESELLSCHAFT, priority 2021, published 2024) are described below.

This data set is described as follows: HPLC (H3PO4) log P determination. In kind it is physicochemical.

Broadly, the log P is the decadic logarithm of the partition coefficient of the neutral form, usually between octanol and water. One may read the chromatographic logP as a lipophilicity value derived from retention on a column. Lower therefore signals a more hydrophilic compound.

In the case of `C[S+]([O-])c1c(C(F)(F)F)ccc(C(=O)O)c1Cl` (racemic) [Example 1 Step 1, 2-chloro-3-[(S,R)-methylsulfinyl]-4-(trifluoromethyl)benzoic Acid], the log partition coefficient (log P) stood at 0.96. For `C[S@+]([O-])c1c(C(F)(F)F)ccc(C(=O)O)c1Cl` [Example 1, 2-chloro-3-[(S)-methylsulfinyl]-4-(trifluoromethyl)benzoic acid], the chromatographic logP worked out at 1.
